Earlier results, collected in US6288040A, “Medicament excipient particles for tissue-specific application of a medicament” (DSS Drug Delivery Service Gesellschaft zur Forderung der …, priority 1997, dated 2001).
Non-standard residues stand in square brackets, D forms with d. No end group written: not given here.

System: mice
Conditions: free dalargin, high dosage 20 mg/kg

Tyr-D-Ala-Gly-Phe-Leu-Arg (Y[dA]GFLR) [dalargin, hexapeptide, leu-enkephalin-analogon, opioid receptor agonist]
analgesic effect after i.v. administration of dalargin: does not lead to an analgesic effect
